{"source": "patent US8101766B2", "about": "“Crystalline form of a biphenyl compound” (Theravance, Inc., priority 2004, dated 2012)", "key": {"[1]": {"tested_on": "MCh-induced bronchoconstriction", "test": "Bronchoprotection in guinea pig model of acetylcholine-induced bronchoconstriction", "format": "in vivo", "details": "inhalation", "description": "Duration of Bronchoprotection in Guinea Pig Models of Acetylcholine-Induced or Histamine-Induced Bronchoconstriction\nTo isolate muscarinic antagonist activity in the acetylcholine-induced bronchoconstriction model, the animals were administered propanolol, a compound that blocks β receptor activity, prior to the administration of acetylcholine. Duration of bronchoprotection in the histamine-induced bronchoconstriction model reflects β2 adrenergic receptor agonist activity.\nGroups of 6 male guinea pigs (Duncan-Hartley (HsdPoc:DH) Harlan, Madison, Wis.) weighing between 250 and 350 g were individually identified by cage cards. Throughout the study, animals were allowed access to food and water ad libitum.\nTest compounds were administered via inhalation over 10 minutes in a whole-body exposure dosing chamber (R&S Molds, San Carlos, Calif.). […] This value was measured gravimetrically by comparing pre- and post-nebulization weights of the filled nebulizer.\nThe bronchoprotective effects of test compounds administered via inhalation were evaluated using whole body plethysmography at 1.5, 24, 48 and 72 hours post-dose. […]\nOnce it was determined that baseline values were within the range of 0.3-0.9 mL/cm H2O for compliance and within the range of 0.1-0.199 cm H2O/mL per second for resistance, the pulmonary evaluation was initiated. […]"}, "[2]": {"target": "T1, human M3 muscarinic receptor (Homo sapiens, UniProt P20309)", "T1 construct": "expressed in transfected cells", "T1 sequence (P20309 whole entry)": "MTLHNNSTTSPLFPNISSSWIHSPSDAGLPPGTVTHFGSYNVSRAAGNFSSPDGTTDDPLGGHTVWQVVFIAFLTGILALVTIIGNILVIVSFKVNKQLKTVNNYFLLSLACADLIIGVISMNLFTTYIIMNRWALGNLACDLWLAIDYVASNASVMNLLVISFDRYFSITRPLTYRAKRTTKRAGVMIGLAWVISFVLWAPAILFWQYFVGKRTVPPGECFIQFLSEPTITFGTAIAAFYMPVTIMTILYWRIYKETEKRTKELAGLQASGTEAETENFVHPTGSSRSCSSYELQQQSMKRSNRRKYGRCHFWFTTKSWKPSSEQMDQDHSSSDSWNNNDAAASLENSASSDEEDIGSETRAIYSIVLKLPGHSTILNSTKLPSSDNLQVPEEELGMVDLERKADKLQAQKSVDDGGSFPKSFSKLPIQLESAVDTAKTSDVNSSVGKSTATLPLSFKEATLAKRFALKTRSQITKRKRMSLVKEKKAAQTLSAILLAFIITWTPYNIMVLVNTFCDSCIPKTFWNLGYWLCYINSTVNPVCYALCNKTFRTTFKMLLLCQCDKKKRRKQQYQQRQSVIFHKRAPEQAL", "test": "Radioligand binding assay for muscarinic receptors (hM3)", "details": "[3H]-NMS displacement, CHO cell membranes", "description": "Cell Culture and Membrane Preparation from Cells Expressing Human M1, M2, M3 and M4 Muscarinic Receptors\nCHO cell lines stably expressing cloned human hM1, hM2, hM3 and hM4 muscarinic receptor subtypes, respectively, were grown to near confluency in HAM's F-12 media supplemented with 10% FBS and 250 μg/mL Geneticin. The cells were grown in a 5% CO2, 37° C. incubator and lifted with 2 mM EDTA in dPBS. Cells were collected by 5 minute centrifugation at 650×g, and cell pellets were either stored frozen at −80° C. or membranes were prepared immediately for use. […] The protein concentration of the membrane suspension was determined by the method described in Lowry et al., 1951, Journal of Biochemistry, 193, 265. […]\nRadioligand binding assays for cloned human muscarinic receptors were performed in 96-well microtiter plates in a total assay volume of 100 μL. […] Filter plates were rinsed three times with wash buffer (10 mM HEPES) to remove unbound radioactivity. […] The plates were then counted in a PerkinElmer Topcount liquid scintillation counter (PerkinElmer Inc., Wellesley, Mass.). Binding data were analyzed by nonlinear regression analysis with the GraphPad Prism Software package (GraphPad Software, Inc., San Diego, Calif.) using the one-site competition model. […]"}}}
{"smiles": "COc1cc(NC(=O)CCN2CCC(OC(=O)Nc3ccccc3-c3ccccc3)CC2)c(Cl)cc1CNC[C@H](O)c1ccc(O)c2[nH]c(=O)ccc12", "note": "[compound of formula I, biphenyl-2-ylcarbamic acid 1-[2-(2-chloro-4-{[(R)-2-hydroxy-2-(8-hydroxy-2-oxo-1,2-dihydroquinolin-5-yl)ethylamino]methyl}-5-methoxyphenylcarbamoyl)ethyl]piperidin-4-yl ester]", "values": [{"measurement": "bronchoprotective effect against MCh-induced bronchoconstriction", "setting": "[1]", "value": "dose-dependent bronchoprotective effect"}, {"measurement": "Ki", "setting": "[2]", "value": "< 10", "unit": "nM"}]}
